± gives the standard deviation of the reports.
glass transition temperature	SMILES
275.50 °C	*c1ccc(Oc2cc3ccccc3cc2Oc2ccc(N3C(=O)c4ccc(Oc5ccc6c(c5)C(=O)N(*)C6=O)cc4C3=O)cc2)cc1 (repeat unit)
142.00 °C	*=Nc1ccc(Cc2ccc(NC(=*)C)cc2)cc1 (repeat unit)
54.00 °C	*Oc1ccc(CC(Cc2ccc(*)cc2)(C(=O)OCC)C(=O)OCC)cc1 (repeat unit)
246.00 ± 4.7 °C	*c1cccc(S(=O)(=O)c2cccc(N3C(=O)c4ccc(Oc5ccc6c(c5)C(=O)N(*)C6=O)cc4C3=O)c2)c1 (repeat unit)
117.00 °C	*CC(O)COc1ccc(C(C)(C)c2ccc(OCC(O)COc3cccc(C(=O)Nc4cccc(O*)c4)c3)cc2)cc1 (repeat unit)
96.70 °C	*CCCCCCCCn1c2ccccc2c2cc(/C=C(\C#N)C(=O)OCCCCCCOC(=O)/C(C#N)=C/c3ccc4c(c3)c3ccccc3n4*)ccc21 (repeat unit)
256.00 °C	*c1ccc(C(c2ccc(N3C(=O)c4ccc(Oc5cc6ccccc6cc5Oc5ccc6c(c5)C(=O)N(*)C6=O)cc4C3=O)cc2)(C(F)(F)F)C(F)(F)F)cc1 (repeat unit)
2.10 °C	*CCCCCCOC(=O)OCCCCOC(=O)OCCCCCCOc1ccc(C(=O)c2ccc(O*)cc2)cc1 (repeat unit)
148 ± 0.6 °C	*Oc1ccc(C(CCC)(CCC)c2ccc(OC(*)=O)cc2)cc1 (repeat unit) [Poly[4,4-heptane bis(4-phenyl)carbonate]]
20.00 °C	*Oc1cccc(C(=O)OCC(F)(F)C(F)(F)C(F)(F)COC(=O)c2cccc(*)c2)c1 (repeat unit)
184.00 °C	*c1cccc(OCCCOc2cccc(N3C(=O)c4ccc(-c5ccc6c(c5)C(=O)N(*)C6=O)cc4C3=O)c2)c1 (repeat unit)
-4.30 °C	*[O][Zn][O]C(=O)c1ccccc1C(=O)OCCCCCOC(=O)NCCCCCCNC(=O)OCCCCCOC(=O)c1ccccc1C(*)=O (repeat unit)
213.00 °C	*Oc1ccc(C(c2ccccc2)(c2ccccc2)c2ccc(OC(*)=O)cc2)cc1 (repeat unit)
327.50 °C	*c1cccc(Cc2cccc(-n3c(=O)c4cc5c(=O)n(*)c(=O)c5cc4c3=O)c2)c1 (repeat unit)
255.00 °C	*c1ccc(Oc2ccc(C3(c4ccc(Oc5ccc(N6C(=O)c7ccc(Oc8ccc(C9(c%10ccc(Oc%11ccc%12c(c%11)C(=O)N(*)C%12=O)cc%10)CCC(c%10ccccc%10)CC9)cc8)cc7C6=O)cc5)cc4)CC4CC3C3CCCC43)cc2)cc1 (repeat unit)
206.00 °C	*C/C=C/c1cc(C(C)(C)c2ccc(O)c(/C=C/CC3CC(=O)N(c4ccc(Cc5ccc(N6C(=O)CC(*)C6=O)cc5)cc4)C3=O)c2)ccc1O (repeat unit)
240.00 °C	*Cc1cc2cc(C(=O)Nc3cccc(NC(=O)c4cc5cc(*)c(OC(=O)COc6ccc7ccc(=O)oc7c6)cc5oc4=O)c3)c(=O)oc2cc1OC(=O)COc1ccc2ccc(=O)oc2c1 (repeat unit)

glass transition temperature	SMILES
317.00 °C	*c1ccc(Oc2ccc(-c3ccc(-c4ccc(Oc5ccc(-c6c7c(c(*)c8ccccc68)C(=O)N(c6ccccc6)C7=O)cc5)c(C(F)(F)F)c4)cc3)cc2C(F)(F)F)cc1 (repeat unit)
110.00 °C	*Nc1cccc(NC(=O)CCCCCCCCC(*)=O)c1 (repeat unit)
191.00 °C	*Oc1ccc2ccc(Oc3ccc(C(=O)Nc4ccc(Oc5ccc(Oc6ccc(NC(=O)c7ccc(*)cc7)cc6)cc5)cc4)cc3)cc2c1 (repeat unit)
60.50 °C	*CCCCCCS(=O)(=O)c1ccc(/N=N/c2ccc(N(C)CCCCCC(=O)O*)cc2)cc1 (repeat unit)
226.90 °C	*c1ccc2c(c1)C(=O)N(c1ccc(Oc3ccc(C(=O)c4cccc(C(=O)c5ccc(Oc6ccc(N7C(=O)c8ccc(C(*)(C(F)(F)F)C(F)(F)F)cc8C7=O)cc6)cc5)n4)cc3)cc1)C2=O (repeat unit)
232.00 °C	*C(=O)c1ccc(C(C)(CC)c2ccc(C(=O)N3CCN(*)CC3)cc2)cc1 (repeat unit)
123.00 °C	*Oc1ccc(C(=O)c2ccc(Oc3ccc(C(=O)c4ccc(Oc5cccc(Cc6cccc(*)c6)c5)cc4)cc3)cc2)cc1 (repeat unit)
184.00 °C	*Nc1cc(NC(=O)Nc2ccc(NC(*)=O)cc2)cc(C(=O)Nc2ccc3c(c2)C(=O)c2ccccc2C3=O)c1 (repeat unit)
305.00 °C	*c1ccc(Oc2ccc(-c3cnc4ccc(-c5ccc6ncc(*)nc6c5)cc4n3)cc2)cc1 (repeat unit)
146.00 °C	*Oc1ccc(C(C)(C)c2ccc(OC(*)=O)c(Cl)c2)cc1 (repeat unit)
224.00 °C	*c1c(C)cc(C(c2cccnc2)c2cc(C)c(N3C(=O)CC(Nc4cccc(NC5CC(=O)N(*)C5=O)c4)C3=O)c(C)c2)cc1C (repeat unit)
40.00 °C	*CC(*)(C)C(=O)OCCCCCCOc1ccc(C(=O)Oc2ccc(/N=N/c3ccc(I)cc3)c3ccccc23)cc1 (repeat unit)
272.20 °C	*c1ccc(Oc2ccc(Oc3ccc(-n4c(=O)c5cc6c(=O)n(*)c(=O)c6cc5c4=O)cc3)cc2)c(C(F)(F)F)c1 (repeat unit)
212.00 °C	*Oc1ccc(C2(c3ccc(Oc4ccc(C(=O)c5cccc(-c6cccc(C(=O)c7ccc(*)cc7)c6)c5)cc4)cc3)c3ccccc3-c3ccccc32)cc1 (repeat unit)
136.00 °C	*Oc1ccc(C(C)(CC)c2ccc(OC(*)=O)cc2)cc1 (repeat unit)
310.00 °C	*C(=O)Nc1ccc(Oc2ccc(-c3ccc(Oc4ccc(NC(=O)c5ccc6c(c5)C(=O)N(c5ccc(Oc7cccc8c(Oc9ccc(N%10C(=O)c%11ccc(*)cc%11C%10=O)cc9)cccc78)cc5)C6=O)cc4)cc3)cc2)cc1 (repeat unit)
111.00 °C	*Oc1cccc(N(c2ccccc2)c2ccc(-c3ccc(N(c4ccc(/N=N/c5ccc([N+](=O)[O-])cc5)cc4)c4cccc(OC(=O)OCCOCCOC(*)=O)c4)cc3)cc2)c1 (repeat unit)

Further lines, the molecule ahead of its results:

SMILES	glass transition temperature
*CC(*)(C)C(=O)OCC(C)O (repeat unit) [Poly(2-hydroxypropyl methacrylate)]	75.4 ± 1.9 °C
*CC(*)(C)C(=O)OC1(C)CCOC(=O)C1 (repeat unit)	110.00 °C
*CC(*)(C)C(=O)Oc1ccc2c(c1)CCC2 (repeat unit)	113.50 °C
*O[Si](*)(CCC)CCC (repeat unit)	-77.50 °C
*CCc1ccc(CCNC(=O)CCCCCCCCCCCCC(=O)N*)cc1 (repeat unit)	93.00 °C
*CCN(*)C(=O)c1cc(F)c(F)cc1F (repeat unit)	105.00 °C
*CCCCCCCCC(*)Cl (repeat unit)	-33.00 °C
*CC(*)(C)C(=O)OCCCCCCCCCCOc1ccc(OC(=O)c2ccc(OCCCCCC)cc2)cc1 (repeat unit)	41.00 °C
*C1C(*)C2CC1C(C(=O)OCCC13CC4CC(CC(C4)C1)C3)C2C(=O)OCCC12CC3CC(CC(C3)C1)C2 (repeat unit)	300.00 °C
*c1ccc(-c2sc(-c3ccc(-c4cc(CCCCCCCCCCCC)c(*)s4)cc3)cc2CCCCCCCCCCCC)cc1 (repeat unit)	-19.20 °C
*NC1CCC(CCC2CCC(NC(=O)CCCCCCCCC(*)=O)CC2)CC1 (repeat unit)	116.00 °C
*CC(*)OC(=O)C(Cl)(Cl)Cl (repeat unit)	59.00 °C
*C1C(=O)N(c2cc(Br)c(O[Si](C)(C)C)c(Br)c2)C(=O)C1* (repeat unit)	167.00 °C
*Oc1cccc(Oc2cccc(*)n2)c1 (repeat unit)	82.00 °C
*CC(*)(C#N)C(=O)OCCCCCC (repeat unit) [Poly(hexyl cyanoacrylate)]	85.92 ± 0.1 °C
*CCCCCCCCCCCCCNC(=O)CCCCCCCCCCCC(=O)N* (repeat unit)	56.50 °C

SMILES	glass transition temperature
*CC(C)(C)C1CC=C(*)CC1 (repeat unit)	77.00 °C
*CCOC(=O)NNC(=O)CCCCCCCCC(=O)NNC(=O)O* (repeat unit)	63.00 °C
*c1ccc2c(c1)C(=O)N(c1cccc(Oc3ccc(N4C(=O)c5ccc(-c6c(-c7ccccc7)c(-c7ccccc7)c(-c7ccc(Sc8ccc(-c9c(-c%10ccccc%10)c(-c%10ccccc%10)c(*)c(-c%10ccccc%10)c9-c9ccccc9)cc8)cc7)c(-c7ccccc7)c6-c6ccccc6)cc5C4=O)cc3)c1)C2=O (repeat unit)	300.00 °C
*/C=C/C1CC(*)C2CC=CC12 (repeat unit)	53.00 °C
*CCCCCCNC(=O)CCCCC(=O)N* (repeat unit) [Poly(hexamethylene adipamide)]	54.53 ± 5.2 °C
*C[Si](*)(C)CCCCCC (repeat unit)	-77.60 °C
*CC(*)OC(F)(C(F)(F)F)C(F)(F)F (repeat unit)	65.00 °C
*OC1CCC(OC(=O)CCCCC(*)=O)CC1 (repeat unit)	77.80 °C
*CCCCCCCCCCOC(=O)CCCCCNC(=O)CCCCC(=O)NCCCCCC(=O)O* (repeat unit)	-12.00 °C
*CC(*)OC(=O)c1ccccc1C (repeat unit)	42.50 °C
*Oc1ccc(OC(=O)c2cc(OCCCCCCCCCCC(F)(F)C(F)(F)C(F)(F)C(F)(F)C(F)(F)C(F)(F)C(F)(F)C(F)(F)C(F)(F)C(F)(F)F)cc(C(*)=O)c2)cc1 (repeat unit)	137.00 °C
*c1cccc(N2C(=O)c3ccc(P(=O)(c4ccccc4)c4ccc5c(c4)C(=O)N(*)C5=O)cc3C2=O)c1 (repeat unit)	323.00 °C
*/C=C/c1cc(OCCCCCCCCC)c(/C=C/c2ccc(*)cc2)cc1OCCCCCCCCC (repeat unit)	44.00 °C
*CC(*)C(=O)OCCCCCCCCCCCCCCCCCC (repeat unit) [Poly(octadecyl acrylate)]	-2.33 ± 57 °C
*c1cc(CCCCCCOC(=O)COc2ccccc2)c(*)s1 (repeat unit)	50.00 °C

From the PolyMetriX glass transition set
